From ChEMBL document CHEMBL1201862, “PubChem BioAssay data set” (2004)
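Results reflect a 48-hour exposure of cells in 96-well plates to compound at five concentrations. At the GI50, growth is halved.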 Calls of active or inactive are those of the source. Rule as the data show it: active = GI50 up to about 1.1 µM and inactive = higher.

Assays:
Test in all cases: NCI-60 cell line screen, 48 h
A549 = tested on: A549
CCRF-CEM = tested on: CCRF-CEM
DU-145 = tested on: DU-145
HCC 2998 = tested on: HCC 2998
HOP-92 = tested on: HOP-92
Hs-578T = tested on: Hs-578T
M14 = tested on: M14
MDA-N = tested on: MDA-N
MOLT-4 = tested on: MOLT-4
Malme-3M = tested on: Malme-3M
NCI-H23 = tested on: NCI-H23
NCI/ADR-RES = tested on: NCI/ADR-RES
OVCAR-8 = tested on: OVCAR-8
PC-3 = tested on: PC-3
SF-268 = tested on: SF-268
SK-MEL-28 = tested on: SK-MEL-28
SK-MEL-5 = tested on: SK-MEL-5
SR = tested on: SR
UO-31 = tested on: UO-31
NCI-H226 = tested on: NCI-H226

SMILES | GI50 (A549) | GI50 (CCRF-CEM) | GI50 (DU-145) | GI50 (HCC 2998) | GI50 (HOP-92) | GI50 (Hs-578T) | GI50 (M14) | GI50 (MDA-N) | GI50 (MOLT-4) | GI50 (Malme-3M) | GI50 (NCI-H23) | GI50 (NCI/ADR-RES) | GI50 (OVCAR-8) | GI50 (PC-3) | GI50 (SF-268) | GI50 (SK-MEL-28) | GI50 (SK-MEL-5) | GI50 (SR) | GI50 (UO-31) | GI50 (NCI-H226)
Cc1cc(C(C)(C)C)cc(CNC2CCCCC2)c1O | 18.4 µM (inactive) | 17.9 µM (inactive) | 21.3 µM (inactive) | 3 µM (inactive) | 15.5 µM (inactive) | 20.2 µM (inactive) | 15.7 µM (inactive) | 16.3 µM (inactive) | 31.3 µM (inactive) | 14.3 µM (inactive) | 15.4 µM (inactive) | 16.4 µM (inactive) | 17.3 µM (inactive) | 16.5 µM (inactive) | 16.1 µM (inactive) | 16.7 µM (inactive) | 17 µM (inactive) | 21.8 µM (inactive) | 14.9 µM (inactive) | –
Cn1c(=O)c2c(nc3n(Cc4ccccc4)c(=O)c(NCCBr)cn23)n(C)c1=O | 29.6 µM (inactive) | 45.5 µM (inactive) | 27.8 µM (inactive) | 16.1 µM (inactive) | 12 µM (inactive) | 29 µM (inactive) | 33.1 µM (inactive) | 57.3 µM (inactive) | 45.6 µM (inactive) | – | 40.4 µM (inactive) | 21.8 µM (inactive) | 14.7 µM (inactive) | 20.1 µM (inactive) | 25.8 µM (inactive) | 53.5 µM (inactive) | 26.2 µM (inactive) | 6.43 µM (inactive) | 13 µM (inactive) | 19.9 µM (inactive)
CCOC(=O)C1OC(C2(C)OC3(OC4(C=CC3O)OC(C(C)C(=O)C(C)C(O)C(C)CC(C)c3c(Cl)cc(C)c(O)c3C(=O)O)C(C)CC4C)C(C)C2OC)CC1O (stereo not given) | 0.406 µM (active) | 0.0828 µM (active) | 0.598 µM (active) | 0.034 µM (active) | 2.13 µM (inactive) | 0.982 µM (active) | 0.48 µM (active) | 0.55 µM (active) | 0.117 µM (active) | 0.294 µM (active) | 0.507 µM (active) | 1.24 µM (inactive) | 0.771 µM (active) | 1.6 µM (inactive) | 0.155 µM (active) | 0.418 µM (active) | 0.257 µM (active) | 0.207 µM (active) | 1.18 µM (inactive) | 0.24 µM (active)
CCCCCCCCCCCCOc1ccc(/C=C/C2=[N+](CCCl)CCO2)cc1 | 65.2 µM (inactive) | 22.8 µM (inactive) | > 100 µM (inactive) | 39.1 µM (inactive) | 25.1 µM (inactive) | 56.6 µM (inactive) | > 100 µM (inactive) | 75.9 µM (inactive) | 25 µM (inactive) | > 100 µM (inactive) | – | 46.1 µM (inactive) | 56.4 µM (inactive) | 58.1 µM (inactive) | – | > 100 µM (inactive) | 67 µM (inactive) | 19.6 µM (inactive) | 47.3 µM (inactive) | > 100 µM (inactive)
COc1cccc(OC)c1C1ON=C(c2ccccc2)N1C12CC3CC(CC(C3)C1)C2 (stereo not given) | 64.3 µM (inactive) | – | > 100 µM (inactive) | > 100 µM (inactive) | 10.9 µM (inactive) | 57.7 µM (inactive) | 78 µM (inactive) | > 100 µM (inactive) | 84.5 µM (inactive) | 38.6 µM (inactive) | > 100 µM (inactive) | > 100 µM (inactive) | > 100 µM (inactive) | 66.5 µM (inactive) | > 100 µM (inactive) | > 100 µM (inactive) | 27.3 µM (inactive) | 5.92 µM (inactive) | > 100 µM (inactive) | > 100 µM (inactive)
COc1cc(Oc2nc3cc(F)c(F)cc3nc2-c2ccccc2)cc(OC)c1OC | > 100 µM (inactive) | > 100 µM (inactive) | > 100 µM (inactive) | – | > 100 µM (inactive) | 38.7 µM (inactive) | 45.3 µM (inactive) | > 100 µM (inactive) | > 100 µM (inactive) | 32 µM (inactive) | > 100 µM (inactive) | > 100 µM (inactive) | > 100 µM (inactive) | 40.3 µM (inactive) | 59 µM (inactive) | > 100 µM (inactive) | 28.1 µM (inactive) | 78.9 µM (inactive) | 73.6 µM (inactive) | 45.5 µM (inactive)
CC1C(=O)OC2CC[N+]3([O-])CC=C(COC(=O)C(C)(O)C1(C)O)C23 (stereo not given) | > 100 µM (inactive) | > 100 µM (inactive) | > 100 µM (inactive) | > 100 µM (inactive) | > 100 µM (inactive) | > 100 µM (inactive) | > 100 µM (inactive) | > 100 µM (inactive) | > 100 µM (inactive) | > 100 µM (inactive) | > 100 µM (inactive) | > 100 µM (inactive) | > 100 µM (inactive) | > 100 µM (inactive) | > 100 µM (inactive) | > 100 µM (inactive) | > 100 µM (inactive) | 95.7 µM (inactive) | – | > 100 µM (inactive)
CN(C)CCN1C(=O)CC[C@@]2(C)C1=CC[C@@H]1[C@@H]2CC[C@@]2(C)[C@H]1CC[C@]2(C)O | > 100 µM (inactive) | > 100 µM (inactive) | > 100 µM (inactive) | – | > 100 µM (inactive) | > 100 µM (inactive) | > 100 µM (inactive) | > 100 µM (inactive) | > 100 µM (inactive) | > 100 µM (inactive) | > 100 µM (inactive) | > 100 µM (inactive) | > 100 µM (inactive) | > 100 µM (inactive) | > 100 µM (inactive) | > 100 µM (inactive) | > 100 µM (inactive) | > 100 µM (inactive) | > 100 µM (inactive) | > 100 µM (inactive)
C/C1=C\[C@H](C)C[C@H](C)OC(=O)C[C@H](c2ccc(O)cc2)NC(=O)[C@H](Cc2ccc(O)c(Br)c2)N(C)C(=O)[C@H](C)NC(=O)[C@@H](C)C1 | > 25 µM (inactive) | > 25 µM (inactive) | > 25 µM (inactive) | – | > 25 µM (inactive) | > 25 µM (inactive) | > 25 µM (inactive) | > 25 µM (inactive) | > 25 µM (inactive) | > 25 µM (inactive) | > 25 µM (inactive) | > 25 µM (inactive) | > 25 µM (inactive) | > 25 µM (inactive) | > 25 µM (inactive) | > 25 µM (inactive) | > 25 µM (inactive) | > 25 µM (inactive) | > 25 µM (inactive) | > 25 µM (inactive)
CNC(=O)C1CCC(=O)N1CN(C(C)=O)c1ccccc1 (stereo not given) | > 100 µM (inactive) | 0.0471 µM (active) | > 100 µM (inactive) | – | > 100 µM (inactive) | > 100 µM (inactive) | > 100 µM (inactive) | > 100 µM (inactive) | > 100 µM (inactive) | > 100 µM (inactive) | > 100 µM (inactive) | > 100 µM (inactive) | > 100 µM (inactive) | > 100 µM (inactive) | > 100 µM (inactive) | > 100 µM (inactive) | > 100 µM (inactive) | 13.6 µM (inactive) | > 100 µM (inactive) | > 100 µM (inactive)
